Here are results for 17 compounds from patent US10597375B2, “Halogen-substituted heterocyclic compound” (UBE INDUSTRIES, LTD., priority 2012, dated 2020).

Molecules are shown by their SMILES. Where only a bound is given, the exact number is not on record here.

The target of one assay is T1, human LPA1 receptor (Homo sapiens, UniProt Q92633).
T1 construct: purchased ChanTest A324; host or cells: RH 7777 cells (recombinant expression; membrane fraction)
Nature of the assay: Binding test of GTPγS to LPA1 receptor. The class given is biochemical. Particulars: membrane fraction of RH 7777 cells expressed with human LPA1 receptor; LPA 100 nM; read-out: IC50: concentration of the test compound which inhibits the binding of LPA1 receptor and [35S]GTPγS by 50%. The protocol: Binding test of GTPγS to LPA1 receptor
5 μg of the membrane fraction of RH 7777 cells expressed with human LPA1 receptor (A324, ChanTest) was suspended in a reaction buffer (20 mM HEPES, 100 mM NaCl, 10 mM MgCl2, 10 μM GDP, 5 μg saponin, 0.2% BSA, 0.1 nM [^35S]GTPγS (NEG030X, Perkin Elmer), pH 7.4), and the test compound dissolved in DMSO in various concentrations was added. After preincubation at 30° C. for 15 minutes, LPA (L7260, Sigma, the final concentration of 100 nM) was added, and the suspension was incubated at 30° C. for 30 minutes. The membrane fraction was collected onto a glass fiber filter (GF/B, Whatman) by using a cell harvester (M30, Brandel), and washed with a 10 mM phosphate buffer (pH 7.4). The radioactivity of the membrane fraction was measured using a liquid scintillation analyzer (2900TR, Packard) and the concentration of the test compound which inhibits the binding of LPA1 receptor and [^35S]GTPγS by 50%, (1050) was determined by non-linear regression analysis using EXSAS (version 7.6.0, Arm Systex).
(In general: GTPγS resists hydrolysis and so accumulates on activated G proteins.)

The subject of assay [1] is A2058 human melanoma cells. In words: Cell migration test (LPA-induced, Chemo-Tx). The class given is cell-based. Particulars: LPA 100 nM, 3 hours, read-out: IC50: concentration of the test compound which inhibits the cell migration activity of LPA by 50%. The procedure, abridged:
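A2058 cells, serum-starved 24 h, pretreated 15 min at 37° C with compound (0.5% DMSO final). Migration over 3 h at 37° C through fibronectin-coated filters toward 100 nM LPA (final). Migrated cells stained, absorbance at 570 nm; IC50 from non-linear regression.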

The test system of assay [2] is LPA-induced histamine release. Nature of the assay: LPA-induced histamine release test in mouse. The assay is classed as in vivo. Particulars: male CD1 mice; oral dose of 10 mg/kg; LPA 300 μg/mouse via tail vein 4 hours after administration; blood 2 minutes after LPA; read-out: efficacy rate (rate of individuals which showed the inhibition rate of 80% or more of plasma histamine). The protocol:
LPA-Induced Histamine Release Test in Mouse
LPA-induced histamine release test in mouse was carried out according to a method by Swaney et al. (The Journal of Pharmacology and Experimental Therapeutics, 336 (2011), pages 693-700). The test compound was suspended in 0.5% methylcellulose solution (133-14255, Wako), and orally administered to male CD1 mice (body weight: 30 to 40 g, supplied by Charles River Laboratories Japan) at a dose of 10 mL/kg. 4 hours after administration, LPA (857130P, Avanti) dissolved in a 0.1% BSA-containing PBS was administered via the tail vein (300 μg/mouse). Immediately, the mouse was anesthetized with isoflurane, and blood was collected via a vein 2 minutes after the administration of LPA. The blood was put into a test tube containing EDTA, and centrifuged at 4° C., 2,000×g, for 10 minutes to obtain the plasma.
The histamine concentration in the plasma was measured by EIA kit (62HTMPEB, Cisbio Bioassays).

T1 sequence (Q92633 whole entry): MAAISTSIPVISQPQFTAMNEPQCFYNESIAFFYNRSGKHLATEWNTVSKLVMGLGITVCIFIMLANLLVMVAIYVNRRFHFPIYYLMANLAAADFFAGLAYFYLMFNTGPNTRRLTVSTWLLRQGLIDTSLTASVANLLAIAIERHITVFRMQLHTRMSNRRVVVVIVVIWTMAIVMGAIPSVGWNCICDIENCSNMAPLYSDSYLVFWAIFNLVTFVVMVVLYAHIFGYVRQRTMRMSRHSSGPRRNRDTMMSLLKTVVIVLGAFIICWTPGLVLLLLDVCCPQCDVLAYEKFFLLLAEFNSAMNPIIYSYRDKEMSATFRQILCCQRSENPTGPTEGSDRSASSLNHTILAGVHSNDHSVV

Regarding `CC(OC(=O)Nc1cc(Br)sc1-c1ccc(-c2ccc(C3(C(=O)O)CC3)cc2)cc1)c1ccccc1Cl` (racemic) [I-11, (RS)-1-{4′-[5-Bromo-3-({[1-(2-chlorophenyl)ethoxy]carbonyl}amino)thiophen-2-yl]-[1,1′-biphenyl]-4-yl}cyclopropanecarboxylic acid], the IC50 at human LPA1 receptor was not above 200 nM.
On to `CC(OC(=O)Nc1cc(Cl)sc1-c1ccc(-c2ccc(C3(C(=O)O)CC3)cc2)cc1)c1ccccc1Cl` (racemic) [I-51, (RS)-1-{4′-[5-Chloro-3-({[1-(2-chlorophenyl)ethoxy]carbonyl}amino)thiophen-2-yl]-[1,1′-biphenyl]-4-yl}cyclopropanecarboxylic acid], for which the IC50 (on human LPA1 receptor; in assay [1]) was not above 200 nM each time.
For `C[C@@H](OC(=O)Nc1cc(Cl)sc1-c1ccc(-c2ccc(C3(C(=O)O)CC3)cc2)cc1)c1ccccc1` [I-24, (R)-1-[4′-(5-Chloro-3-{[(1-phenylethoxy)carbonyl]amino}thiophen-2-yl)-[1,1′-biphenyl]-4-yl]cyclopropanecarboxylic acid], the responders at 10 mg/kg in assay [2] is not below 50%. For the same compound, the IC50 (on human LPA1 receptor; in assay [1]) was not above 200 nM each time.
Take `C[C@@H](OC(=O)Nc1cc(Cl)sc1-c1ccc(-c2ccc(C3(C(=O)O)CC3)cc2)cc1)c1ccccc1F` [I-28, (R)-1-{4′-[5-Chloro-3-({[1-(2-fluorophenyl)ethoxy]carbonyl}amino)thiophen-2-yl]-[1,1′-biphenyl]-4-yl}cyclopropanecarboxylic acid]: the responders at 10 mg/kg in assay [2] is not below 50%. For the same compound, the IC50 (on human LPA1 receptor; in assay [1]) was not above 200 nM in each case.
Consider `C[C@@H](OC(=O)Nc1cc(Cl)sc1-c1ccc(-c2ccc(C3(C(=O)O)CC3)cc2)cc1)c1cccc(F)c1` [I-38, (R)-1-{4′-[5-Chloro-3-({[1-(3-fluorophenyl)ethoxy]carbonyl}amino)thiophen-2-yl]-[1,1′-biphenyl]-4-yl}cyclopropanecarboxylic acid], for which, in assay [2], the responders at 10 mg/kg was not below 50%. The IC50 (on human LPA1 receptor; in assay [1]) was not above 200 nM in each case.
For the compound `C[C@@H](OC(=O)Nc1cc(Cl)sc1-c1ccc(-c2ccc(C3(C(=O)O)CC3)cc2)cc1)c1ccc(F)cc1` [I-42, (R)-1-{4′-[5-Chloro-3-({[1-(4-fluorophenyl)ethoxy]carbonyl}amino)thiophen-2-yl]-[1,1′-biphenyl]-4-yl}cyclopropanecarboxylic acid], in assay [2], the responders at 10 mg/kg was not below 50%. Besides, the IC50 (on human LPA1 receptor; in assay [1]) was not above 200 nM throughout.
As for `C[C@@H](OC(=O)Nc1cc(Cl)sc1-c1ccc(-c2ccc(C3(C(=O)O)CC3)cc2)cc1)c1ccccc1Cl` [I-52, (R)-1-{4′-[5-Chloro-3-({[1-(2-chlorophenyl)ethoxy]carbonyl}amino)thiophen-2-yl]-[1,1′-biphenyl]-4-yl}cyclopropanecarboxylic acid], the responders at 10 mg/kg in assay [2] is not below 50%. The IC50 (on human LPA1 receptor; in assay [1]) was not above 200 nM in each case.
With `C[C@@H](OC(=O)Nc1cc(Cl)sc1-c1ccc(-c2ccc(C3(C(=O)O)CC3)cc2)cc1)c1ccc(Cl)cc1` [I-56, (R)-1-{4′-[5-Chloro-3-({[1-(4-chlorophenyl)ethoxy]carbonyl}amino)thiophen-2-yl]-[1,1′-biphenyl]-4-yl}cyclopropanecarboxylic acid], the responders at 10 mg/kg in assay [2] is not below 50%. In addition, the IC50 (at human LPA1 receptor; in assay [1]) was not above 200 nM in each case.
For the compound `Cc1ccccc1[C@@H](C)OC(=O)Nc1cc(Cl)sc1-c1ccc(-c2ccc(C3(C(=O)O)CC3)cc2)cc1` [I-60, (R)-1-{4′-[5-Chloro-3-({[1-(o-tolyl)ethoxy]carbonyl}amino)thiophen-2-yl]-[1,1′-biphenyl]-4-yl}cyclopropanecarboxylic acid], the responders at 10 mg/kg in assay [2] is not below 50%. Further, the IC50 (at human LPA1 receptor; in assay [1]) was not above 200 nM in each case.
On to `C[C@@H](OC(=O)Nc1cc(Cl)sc1-c1ccc(-c2ccc(C3(C(=O)O)CC3)cc2)cc1)c1ccc(F)cc1Cl` [I-76, (R)-1-{4′-[5-Chloro-3-({[1-(2-chloro-4-fluorophenyl)ethoxy]carbonyl}amino)thiophen-2-yl]-[1,1′-biphenyl]-4-yl}cyclopropanecarboxylic acid], for which the IC50 (at human LPA1 receptor; in assay [1]) was not above 200 nM throughout.
Take `C[C@@H](OC(=O)Nc1cc(F)sc1-c1ccc(-c2ccc(C3(C(=O)O)CC3)cc2)cc1)c1ccccc1` [I-100, (R)-1-[4′-(5-Fluoro-3-{[(1-phenylethoxy)carbonyl]amino}thiophen-2-yl)-[1,1′-biphenyl]-4-yl]cyclopropanecarboxylic acid]: the responders at 10 mg/kg in assay [2] is not below 50%. Also, the IC50 (on human LPA1 receptor; in assay [1]) was not above 200 nM in each case.
Regarding `C[C@@H](OC(=O)Nc1cc(F)sc1-c1ccc(-c2ccc(C3(C(=O)O)CC3)cc2)cc1)c1ccccc1F` [I-104, (R)-1-{4′-[5-Fluoro-3-({[1-(2-fluorophenyl)ethoxy]carbonyl}amino)thiophen-2-yl]-[1,1′-biphenyl]-4-yl}cyclopropanecarboxylic acid], in assay [2], the responders at 10 mg/kg is not below 50%. Moreover, the IC50 (at human LPA1 receptor; in assay [1]) was not above 200 nM in each case.
Turning to `C[C@@H](OC(=O)Nc1cc(F)sc1-c1ccc(-c2ccc(C3(C(=O)O)CC3)cc2)cc1)c1ccc(F)cc1` [I-112, (R)-1-{4′-[5-Fluoro-3-({[1-(4-fluorophenyl)ethoxy]carbonyl}amino)thiophen-2-yl]-[1,1′-biphenyl]-4-yl}cyclopropanecarboxylic acid], the responders at 10 mg/kg in assay [2] is not below 50%. The IC50 (on human LPA1 receptor; in assay [1]) was not above 200 nM throughout.
On to `C[C@@H](OC(=O)Nc1cc(F)sc1-c1ccc(-c2ccc(C3(C(=O)O)CC3)cc2)cc1)c1ccccc1Cl` [I-122, (R)-1-{4′-[3-({[1-(2-Chlorophenyl)ethoxy]carbonyl}amino)-5-fluorothiophen-2-yl]-[1,1′-biphenyl]-4-yl}cyclopropanecarboxylic acid], for which the responders at 10 mg/kg in assay [2] is not below 50%. Further, the IC50 (on human LPA1 receptor; in assay [1]) was not above 200 nM each time.
For the compound `C[C@@H](OC(=O)Nc1cc(F)sc1-c1ccc(-c2ccc(C3(C(=O)O)CC3)cc2)cc1)c1ccc(Cl)cc1` [I-126, (R)-1-{4′-[3-({[1-(4-Chlorophenyl)ethoxy]carbonyl}amino)-5-fluorothiophen-2-yl]-[1,1′-biphenyl]-4-yl}cyclopropanecarboxylic acid], the responders at 10 mg/kg in assay [2] was not below 50%. Besides, the IC50 (at human LPA1 receptor; in assay [1]) was not above 200 nM in each case.
On to `C[C@@H](OC(=O)Nc1cc(F)sc1-c1ccc(-c2ccc(C3(C(=O)O)CC3)cc2)cc1)c1ccc(F)cc1F` [I-140, (R)-1-{4′-[3-({[1-(2,4-Difluorophenyl)ethoxy]carbonyl}amino)-5-fluorothiophen-2-yl]-[1,1′-biphenyl]-4-yl}cyclopropanecarboxylic acid], for which the IC50 (on human LPA1 receptor; in assay [1]) was not above 200 nM throughout.
Turning to `C[C@@H](OC(=O)Nc1cc(F)sc1-c1ccc(-c2ccc(C3(C(=O)O)CC3)cc2)cc1)c1ccc(F)cc1Cl` [I-152, (R)-1-{4′-[3-({[1-(2-Chloro-4-fluorophenyl)ethoxy]carbonyl}amino)-5-fluorothiophen-2-yl]-[1,1′-biphenyl]-4-yl}cyclopropanecarboxylic acid], in assay [2], the responders at 10 mg/kg was not below 50%. Also, the IC50 (on human LPA1 receptor; in assay [1]) was not above 200 nM in each case.
